# In ChEMBL document CHEMBL1153696, “Hypoglycemic polysaccharides from the tuberous root of Liriope spicata” (2009):
# The source made the active and inactive calls. The rule behind the calls is not given here.
# Legend:
# Mus musculus [1] = experiment: Antidiabetic activity in BALB/c mouse type 2 diabetic model assessed as reduction of fasting blood glucose level at 100 mg/kg, po QD measured after 1 week by glucometry (Rvb=14.89 +/- 1.37 mmol/L); format: functional
# Mus musculus [2] = experiment: Hypoglycemic effect in type 2 diabetic BALB/c mouse model assessed as reduction in blood glucose excursion at 2 mg/kg, po pretreated 60 mins before glucose challenge measured up to 3 hrs by one-touch glucometer relative to diabetic control; format: functional, organism-based; parameters: dose 2 mg/kg
# Mus musculus [3] = experiment: Antidiabetic activity in BALB/c mouse type 2 diabetic model assessed as reduction of fasting blood glucose level at 100 mg/kg, po QD measured after 3 weeks by glucometry (Rvb=14.89 +/- 1.42 mmol/L); format: functional
# Mus musculus [4] = experiment: Antidiabetic activity in BALB/c mouse type 2 diabetic model assessed as reduction of fasting blood glucose level at 100 mg/kg, po QD measured after 4 weeks by glucometry (Rvb=15.03 +/- 1.47 mmol/L); format: functional
# Mus musculus [5] = experiment: Hypoglycemic effect in type 2 diabetic BALB/c mouse model assessed as reduction in blood glucose excursion at 100 to 200 mg/kg, po pretreated 60 mins before glucose challenge measured up to 3 hrs by one-touch glucometer relative to diabetic control; format: functional, organism-based
# Mus musculus [6] = experiment: Antidiabetic activity in BALB/c mouse type 2 diabetic model assessed as reduction of fasting blood glucose level at 100 mg/kg, po QD measured after 2 weeks by glucometry (Rvb=14.86 +/- 1.58 mmol/L); format: functional
# Mus musculus [7] = experiment: Antidiabetic activity in BALB/c mouse type 2 diabetic model assessed as reduction of fasting blood glucose level at 200 mg/kg, po QD measured after 2 weeks by glucometry (Rvb=14.86 +/- 1.58 mmol/L); format: functional
# Mus musculus [8] = experiment: Antidiabetic activity in BALB/c mouse type 2 diabetic model assessed as reduction of fasting blood glucose level at 200 mg/kg, po QD measured after 1 week by glucometry (Rvb=14.89 +/- 1.37 mmol/L); format: functional
# Mus musculus [9] = experiment: Antidiabetic activity in BALB/c mouse type 2 diabetic model assessed as reduction of fasting blood glucose level at 200 mg/kg, po QD measured after 4 weeks by glucometry (Rvb=15.03 +/- 1.47 mmol/L); format: functional
# Mus musculus [10] = experiment: Antidiabetic activity in BALB/c mouse type 2 diabetic model assessed as reduction of fasting blood glucose level at 200 mg/kg, po QD measured after 3 weeks by glucometry (Rvb=14.89 +/- 1.42 mmol/L); format: functional
# Mus musculus [11] = experiment: Antidiabetic activity in BALB/c mouse type 2 diabetic model assessed as reduction of fasting blood glucose level at 2 mg/kg, po QD measured after 1 week by glucometry (Rvb=14.89 +/- 1.37 mmol/L); format: functional
# Mus musculus [12] = experiment: Antidiabetic activity in BALB/c mouse type 2 diabetic model assessed as reduction of fasting blood glucose level at 2 mg/kg, po QD measured after 4 weeks by glucometry (Rvb=15.03 +/- 1.47 mmol/L); format: functional
# Mus musculus [13] = experiment: Antidiabetic activity in BALB/c mouse type 2 diabetic model assessed as reduction of fasting blood glucose level at 2 mg/kg, po QD measured after 3 weeks by glucometry (Rvb=14.89 +/- 1.42 mmol/L); format: functional
# Mus musculus [14] = experiment: Antidiabetic activity in BALB/c mouse type 2 diabetic model assessed as reduction of fasting blood glucose level at 2 mg/kg, po QD measured after 2 weeks by glucometry (Rvb=14.86 +/- 1.58 mmol/L); format: functional
SMILES,Activity (Mus musculus [1]),Activity (Mus musculus [2]),Activity (Mus musculus [3]),Activity (Mus musculus [4]),Activity (Mus musculus [5]),Activity (Mus musculus [6]),Activity (Mus musculus [7]),Activity (Mus musculus [8]),Activity (Mus musculus [9]),Activity (Mus musculus [10]),Activity (Mus musculus [11]),Activity (Mus musculus [12]),Activity (Mus musculus [13]),Activity (Mus musculus [14])
OC[C@H]1O[C@@](CO)(OC[C@H]2O[C@@](CO[C@]3(CO[C@]4(CO)O[C@H](CO)[C@@H](O)[C@@H]4O)O[C@H](CO)[C@@H](O)[C@@H]3O)(OC[C@@]3(OC[C@@]4(OC[C@@]5(OC[C@@]6(OC[C@@]7(OC[C@@]8(OC[C@@]9(OC[C@@]%10(OC[C@@]%11(OC[C@@]%12(OC[C@@]%13(OC[C@@]%14(OC[C@@]%15(OC[C@@]%16(OC[C@@]%17(OC[C@@]%18(O[C@@H]%19O[C@H](CO)[C@@H](O)[C@H](O)[C@H]%19O)O[C@H](CO)[C@@H](O)[C@@H]%18O)O[C@H](CO[C@]%18(CO)O[C@H](CO)[C@@H](O)[C@@H]%18O)[C@@H](O)[C@@H]%17O)O[C@H](CO)[C@@H](O)[C@@H]%16O)O[C@H](CO)[C@@H](O)[C@@H]%15O)O[C@H](CO[C@]%15(CO)O[C@H](CO)[C@@H](O)[C@@H]%15O)[C@@H](O)[C@@H]%14O)O[C@H](CO)[C@@H](O)[C@@H]%13O)O[C@H](CO)[C@@H](O)[C@@H]%12O)O[C@H](CO[C@]%12(CO)O[C@H](CO)[C@@H](O)[C@@H]%12O)[C@@H](O)[C@@H]%11O)O[C@H](CO)[C@@H](O)[C@@H]%10O)O[C@H](CO)[C@@H](O)[C@@H]9O)O[C@H](CO[C@]9(CO)O[C@H](CO)[C@@H](O)[C@@H]9O)[C@@H](O)[C@@H]8O)O[C@H](CO)[C@@H](O)[C@@H]7O)O[C@H](CO)[C@@H](O)[C@@H]6O)O[C@H](CO[C@]6(CO)O[C@H](CO)[C@@H](O)[C@@H]6O)[C@@H](O)[C@@H]5O)O[C@H](CO)[C@@H](O)[C@@H]4O)O[C@H](CO)[C@@H](O)[C@@H]3O)[C@@H](O)[C@@H]2O)[C@@H](O)[C@@H]1O,10.04 mmol/L,Active,4.7 mmol/L,4.63 mmol/L,Active,7.05 mmol/L,6.16 mmol/L,8.65 mmol/L,4.78 mmol/L,5.14 mmol/L,–,–,–,–
OC[C@H]1OC(CO)(OC[C@H]2O[C@@](CO[C@]3(CO[C@]4(CO[C@]5(CO[C@]6(CO[C@]7(CO)O[C@H](CO)[C@@H](O)[C@@H]7O)O[C@H](CO[C@]7(CO)O[C@H](CO)[C@@H](O)[C@@H]7O)[C@@H](O)[C@@H]6O)O[C@H](CO)[C@@H](O)[C@@H]5O)O[C@H](CO[C@]5(CO)O[C@H](CO)[C@@H](O)[C@@H]5O)[C@@H](O)[C@@H]4O)O[C@H](CO)[C@@H](O)[C@@H]3O)(OC[C@@]3(OC[C@@]4(OC[C@@]5(OC[C@@]6(OC[C@@]7(OC[C@@]8(OC[C@@]9(O[C@@H]%10O[C@H](CO)[C@@H](O)[C@H](O)[C@H]%10O)O[C@H](CO)[C@@H](O)[C@@H]9O)O[C@H](CO[C@]9(CO)O[C@H](CO)[C@@H](O)[C@@H]9O)[C@@H](O)[C@@H]8O)O[C@H](CO)[C@@H](O)[C@@H]7O)O[C@H](CO[C@]7(CO)O[C@H](CO)[C@@H](O)[C@@H]7O)[C@@H](O)[C@@H]6O)O[C@H](CO)[C@@H](O)[C@@H]5O)O[C@H](CO[C@]5(CO)O[C@H](CO)[C@@H](O)[C@@H]5O)[C@@H](O)[C@@H]4O)O[C@H](CO)[C@@H](O)[C@@H]3O)[C@@H](O)[C@@H]2O)[C@@H](O)[C@@H]1O (stereo partly specified),9.71 mmol/L,Active,4.83 mmol/L,5.13 mmol/L,Active,7.96 mmol/L,7.25 mmol/L,9.35 mmol/L,4.83 mmol/L,5.44 mmol/L,–,–,–,–
CN(CCOc1ccc(CC2SC(=O)NC2=O)cc1)c1ccccn1 (stereo unspecified) [ROSIGLITAZONE],–,Active,–,–,Active,–,–,–,–,–,9.58 mmol/L,4.94 mmol/L,5.04 mmol/L,5.54 mmol/L
